Source: US7276050B2, “Trans-scleral drug delivery method and apparatus” (priority 2004, dated 2007)

How the values were obtained:
[1] = test system: hyperoxia-induced ocular neovascularization; assay: Mouse pup model of hyperoxia-induced ocular neovascularization; assay type: in vivo
Source text: Testing of CAI in a mouse pup model of hyperoxia-induced ocular neovascularization, in which posterior retinal ischemia mediates of pathological angiogenesis, has confirmed that CAI is a potent inhibitor of ocular angiogenesis in this model.

[2] = Transmission electron microscopy of sclera after diffusion experiments; parameters: species or system human; settings: after diffusion experiments with CAI in all three test solutions
Protocol: At the end of the trans-scleral diffusion experiments with CAI (DMSO 10%, 20%, and ethanol 10%) and 2ME2 (1% DMSO) the scleral tissue was fixed in 2.5% glutaraldehyde in 0.1 M sodium cacodylate buffer and prepared for transmission electron microscopy (TEM). The scleral tissue was bisected and postfixed in 2% osmium tetroxide for 2 hours. Small pieces of the sclera were embedded in low-viscosity epoxy medium, thin sectioned, stained with uranyl acetate and lead citrate, and viewed with a JEOL 100 CX transmission electron microscope. The micrographs were taken at X 2850.

[3] = cited from earlier work
[4] = Trans-scleral diffusion in 2 chamber perfusion apparatus (HPLC readout); assay type: in vitro ADME, human
Source text: Scleral tissue was obtained from 23 human donor eyes (Georgia Eye Bank, Atlanta) and was stored in moist chambers for 2-6 days post-mortem. The mean age at time of death (±SE) for the donor tissue used in this study was 52.4±4.4 years. Scleral tissue was dissected from the superotemporal quadrant of each eye to minimize associated structures that can modify scleral permeability such as vortex veins, posterior ciliary arteries, and anterior ciliary vessels. Uveal tissue and episclera were carefully removed using a cotton-tip applicator. The sclera was mounted horizontally in a 2 chamber acrylic perfusion apparatus (FIG. 1). The uveal surface was apposed to the lower flow-through hemi-chamber (volume 500 μL) containing balanced salt solution (BSS, Alcon laboratories, Ft. Worth, Tex.). The test solution was applied to the episcleral surface. Since CAI has a 423 Da molecular weight and the molecule is hydrophobic with a solubility of 1-10 μM in water, three different test solutions that contained carboxyamido-triazole were evaluated: CAI in 20% DMSO (80% BSS vol/vol) at a concentration (mean±SE) of 15.2±3.0 μM (solution A), CAI in 10% DMSO (90% BSS) at a concentration of 4.1±0.4 μM (solution B), and CAI in 10% ethanol (90% BSS) at a concentration of 3.3±0.2 μM (solution C).
The BSS in the lower hemi-chamber was perfused at a rate of 0.03 ml/min. The perfusion apparatus was placed on a magnetic stir plate and mixing in the lower hemi-chamber was achieved using a stir bar. The upper hemi-chamber containing the test compound was covered with parafilm and sealed with silicone grease to prevent evaporation. This also provided a flexible seal so that trans-scleral pressure would not be altered. The temperature of the apparatus was maintained at 37° C. by a water jacket with circulating water bath.
A physiologic pressure of 15 mm Hg was applied across the sclera by raising the height of the outflow tube of the receptor (lower-) chamber to 22 cm. A pressure transducer that was connected to the lower hemi-chamber verified the pressure. For all three solutions that contained carboxyamido-triazole 100 μl was applied to the episcleral side and samples of perfusate were collected at the uveal side of the sclera at time zero and at 30-minute intervals for the duration of 8 hours. The scleral permeability to CAI in a 10% ethanol solution was also evaluated over a longer period of 24 hours of which samples were taken hourly. For the 24 hours experiments 500 μl of the test solution was added to the upper hemi-chamber to minimize depletion of the drug on the donor side.
From each sample obtained from the trans-scleral diffusion experiments an aliquot of 100 μl was taken and the concentrations of CAI were monitored by reverse-phase high-performance liquid chromatography (HPLC). Results were calculated on the basis of peak areas. Samples were analyzed by using a Hewlett Packard HP1100 HPLC system equipped with a UV detector, an auto-sampler, a pump, and a HP Kayak workstation that controls the operation of HPLC and analyzes the data. A Zorbak Rx-C8 column (4.6×250 mm) was used for separation and detection was set at 260 nm. The flow rate employed was 1.0 ml/min with mobile phase of 55% acetonitrile and 45% water. The injection volume was 100 μl and retention time of CAI was about 7.8 minutes.
Steady state permeability constants were calculated from the data as: Ktrans=[Rtotal/(t)(A)]×1/[D]
Where Rtotal is the amount of drug in the receiver effluent per collected fraction, and t is the fraction collection time (in seconds). A is the area of exposed sclera (in square centimeters). This value—Rtotal/(t)(A)—is equal to the flux across the tissue. D is the concentration of drug in the donor hemi-chamber. Permeability thus represents the steady state flux normalized by donor concentration. The area of exposed sclera was 0.385 cm2. Mean steady state permeability values (±SE) were calculated from four to eight experiments performed for each compound.

[5] = mouse pup, hyperoxia-induced ocular neovascularization

## NC(=O)c1nnn(Cc2cc(Cl)c(C(=O)c3ccc(Cl)cc3)c(Cl)c2)c1N [CAI, Carboxyamido-triazole]
[1]; ischemic inner plexiform layer, mouse pup model
  intracellular bcl-2 (immunohistochemistry): up regulation of intracellular bcl-2
[1]; [5]
  formation of neovascular fronds: nearly completely abolished formation of neovascular fronds
  regression of preformed neovascular fronds: dramatic and significant regression of preformed neovascular fronds
[2]
  scleral ultrastructure by TEM: normal ultrastructure within the sclera
[3]
  solubility in water: 1 to 10 µM
[4]
  diffusion across the sclera: diffused across the sclera effectively
[4]; human, 3.3 μM
  time at which semi-steady state flux was observed: 13 h
[4]; human, 4.1 μM
  time to reach steady state: 6 h
[4]; human, 15.2 μM
  time to reach semi-steady state: approximately 5 hours
[4]; solution A: 15.2 μM CAI in 20% DMSO (80% BSS), human sclera, 37° C., 15 mm Hg, n=4, read-out: permeability constant (mean±SE)
  Papp at 8 h, 15.2 μM: 2.8 ×10⁻⁶ cm/s
[4]; solution B: 4.1 μM CAI in 10% DMSO (90% BSS), human sclera, n=7, read-out: permeability constant (mean±SE)
  Papp at 8 h, 4.1 μM: 5.5 ×10⁻⁶ cm/s
[4]; solution C: 3.3 μM CAI in 10% EtOH (90% BSS), 24 hour sampling, human sclera, n=4, read-out: permeability constant (mean±SE)
  Papp at 24 h, 3.3 μM: 4.16 ×10⁻⁶ cm/s
